Patent US20070149465A1, “COMPOSITIONS AND METHODS FOR PREVENTION AND TREATMENT OF CACHEXIA” (priority 2005, published 2007)

Test: Aqueous stability of roxithromycin (% Purity by HPLC)
Type: physicochemical
Conditions: for Roxithromycin % Purity By Area Normalization: 2 mg/mL
Experimental: Roxithromycin stability was determined for 2 mg/mL [roxithromycin] at 5, 25, and 40° C. as a function of pH and buffer (citrate) concentration. Roxithromycin %Purity was determined by area normalization using a reverse-phase HPLC method that meets the requirements of the EP Monograph. Solution pH values were determined per USP <791>.

CC[C@H]1OC(=O)[C@H](C)[C@@H](O[C@H]2C[C@@](C)(OC)[C@@H](O)[C@H](C)O2)[C@H](C)[C@@H](O[C@@H]2O[C@H](C)C[C@H](N(C)C)[C@H]2O)[C@](C)(O)C[C@@H](C)/C(=N\OCOCCOC)[C@H](C)[C@@H](O)[C@]1(C)O [roxithromycin]
stability of aqueous formulation (2 mg/mL roxithromycin, 20 mM citrate buffer at pH 6): satisfactory | Roxithromycin % Purity By Area Normalization (25° C., citrate pH 4, 20 mM, 0 mo): 81% | Roxithromycin % Purity By Area Normalization (25° C., citrate pH 4, 20 mM, 0.3 mo): 74% | Roxithromycin % Purity By Area Normalization (25° C., citrate pH 4, 20 mM, 0.5 mo): 70% | Roxithromycin % Purity By Area Normalization (25° C., citrate pH 4, 20 mM, 0.9 mo): 65% | Roxithromycin % Purity By Area Normalization (25° C., citrate pH 4, 20 mM, 1.5 mo): 56% | Roxithromycin % Purity By Area Normalization (25° C., citrate pH 4, 20 mM, 2.6 mo): 48% | Roxithromycin % Purity By Area Normalization (25° C., citrate pH 4, 20 mM, 5.3 mo): 28% | Roxithromycin % Purity By Area Normalization (25° C., citrate pH 4, 20 mM, 7.3 mo): 15% | Roxithromycin % Purity By Area Normalization (25° C., citrate pH 4, 50 mM, 0 mo): 78% | Roxithromycin % Purity By Area Normalization (25° C., citrate pH 4, 50 mM, 0.3 mo): 71% | Roxithromycin % Purity By Area Normalization (25° C., citrate pH 4, 50 mM, 0.5 mo): 65% | Roxithromycin % Purity By Area Normalization (25° C., citrate pH 4, 50 mM, 0.9 mo): 59% | Roxithromycin % Purity By Area Normalization (25° C., citrate pH 4, 50 mM, 1.5 mo): 47% | Roxithromycin % Purity By Area Normalization (25° C., citrate pH 4, 50 mM, 2.6 mo): 33% | Roxithromycin % Purity By Area Normalization (25° C., citrate pH 4, 50 mM, 5.3 mo): 15% | Roxithromycin % Purity By Area Normalization (25° C., citrate pH 4, 50 mM, 7.3 mo): 6% | Roxithromycin % Purity By Area Normalization (25° C., citrate pH 5, 20 mM, 0 mo): 96% | Roxithromycin % Purity By Area Normalization (25° C., citrate pH 5, 20 mM, 0.3 mo): 88% | Roxithromycin % Purity By Area Normalization (25° C., citrate pH 5, 20 mM, 0.5 mo): 84% | Roxithromycin % Purity By Area Normalization (25° C., citrate pH 5, 20 mM, 0.9 mo): 80% | Roxithromycin % Purity By Area Normalization (25° C., citrate pH 5, 20 mM, 1.5 mo): 77% | Roxithromycin % Purity By Area Normalization (25° C., citrate pH 5, 20 mM, 2.6 mo): 75% | Roxithromycin % Purity By Area Normalization (25° C., citrate pH 5, 20 mM, 5.3 mo): 75% | Roxithromycin % Purity By Area Normalization (25° C., citrate pH 5, 20 mM, 7.3 mo): 71% | Roxithromycin % Purity By Area Normalization (25° C., citrate pH 5, 50 mM, 0 mo): 92% | Roxithromycin % Purity By Area Normalization (25° C., citrate pH 5, 50 mM, 0.3 mo): 82% | Roxithromycin % Purity By Area Normalization (25° C., citrate pH 5, 50 mM, 0.5 mo): 78% | Roxithromycin % Purity By Area Normalization (25° C., citrate pH 5, 50 mM, 0.9 mo): 77% | Roxithromycin % Purity By Area Normalization (25° C., citrate pH 5, 50 mM, 1.5 mo): 74% | Roxithromycin % Purity By Area Normalization (25° C., citrate pH 5, 50 mM, 2.6 mo): 71% | Roxithromycin % Purity By Area Normalization (25° C., citrate pH 5, 50 mM, 5.3 mo): 67% | Roxithromycin % Purity By Area Normalization (25° C., citrate pH 5, 50 mM, 7.3 mo): 59% | Roxithromycin % Purity By Area Normalization (25° C., citrate pH 5, 100 mM, 0 mo): 90% | Roxithromycin % Purity By Area Normalization (25° C., citrate pH 5, 100 mM, 0.3 mo): 79% | Roxithromycin % Purity By Area Normalization (25° C., citrate pH 5, 100 mM, 0.5 mo): 76% | Roxithromycin % Purity By Area Normalization (25° C., citrate pH 6, 20 mM, 0 mo): 98% | Roxithromycin % Purity By Area Normalization (25° C., citrate pH 6, 20 mM, 0.3 mo): 97% | Roxithromycin % Purity By Area Normalization (25° C., citrate pH 6, 20 mM, 0.5 mo): 96% | Roxithromycin % Purity By Area Normalization (25° C., citrate pH 6, 20 mM, 0.9 mo): 96% | Roxithromycin % Purity By Area Normalization (25° C., citrate pH 6, 20 mM, 1.5 mo): 94% | Roxithromycin % Purity By Area Normalization (25° C., citrate pH 6, 20 mM, 2.6 mo): 92% | Roxithromycin % Purity By Area Normalization (25° C., citrate pH 6, 20 mM, 5.3 mo): 90% | Roxithromycin % Purity By Area Normalization (25° C., citrate pH 6, 20 mM, 7.3 mo): 87% | Roxithromycin % Purity By Area Normalization (25° C., citrate pH 6, 50 mM, 0 mo): 98% | Roxithromycin % Purity By Area Normalization (25° C., citrate pH 6, 50 mM, 0.3 mo): 96% | Roxithromycin % Purity By Area Normalization (25° C., citrate pH 6, 50 mM, 0.5 mo): 94% | Roxithromycin % Purity By Area Normalization (25° C., citrate pH 6, 50 mM, 0.9 mo): 92% | Roxithromycin % Purity By Area Normalization (25° C., citrate pH 6, 50 mM, 1.5 mo): 89% | Roxithromycin % Purity By Area Normalization (25° C., citrate pH 6, 50 mM, 2.6 mo): 85% | Roxithromycin % Purity By Area Normalization (25° C., citrate pH 6, 50 mM, 5.3 mo): 81% | Roxithromycin % Purity By Area Normalization (25° C., citrate pH 6, 50 mM, 7.3 mo): 78% | Roxithromycin % Purity By Area Normalization (40° C., citrate pH 4, 20 mM, 0 mo): 81% | Roxithromycin % Purity By Area Normalization (40° C., citrate pH 4, 20 mM, 0.3 mo): 27% | Roxithromycin % Purity By Area Normalization (40° C., citrate pH 4, 20 mM, 0.5 mo): 10% | Roxithromycin % Purity By Area Normalization (40° C., citrate pH 4, 20 mM, 0.9 mo): 2% | Roxithromycin % Purity By Area Normalization (40° C., citrate pH 4, 50 mM, 0 mo): 78% | Roxithromycin % Purity By Area Normalization (40° C., citrate pH 4, 50 mM, 0.3 mo): 15% | Roxithromycin % Purity By Area Normalization (40° C., citrate pH 4, 50 mM, 0.5 mo): 3% | Roxithromycin % Purity By Area Normalization (40° C., citrate pH 4, 50 mM, 0.9 mo): 1% | Roxithromycin % Purity By Area Normalization (40° C., citrate pH 5, 20 mM, 0 mo): 96% | Roxithromycin % Purity By Area Normalization (40° C., citrate pH 5, 20 mM, 0.3 mo): 74% | Roxithromycin % Purity By Area Normalization (40° C., citrate pH 5, 20 mM, 0.5 mo): 66% | Roxithromycin % Purity By Area Normalization (40° C., citrate pH 5, 20 mM, 0.9 mo): 60% | Roxithromycin % Purity By Area Normalization (40° C., citrate pH 5, 20 mM, 1.5 mo): 50% | Roxithromycin % Purity By Area Normalization (40° C., citrate pH 5, 20 mM, 2.6 mo): 36% | Roxithromycin % Purity By Area Normalization (40° C., citrate pH 5, 20 mM, 5.3 mo): 21% | Roxithromycin % Purity By Area Normalization (40° C., citrate pH 5, 50 mM, 0 mo): 92% | Roxithromycin % Purity By Area Normalization (40° C., citrate pH 5, 50 mM, 0.3 mo): 66% | Roxithromycin % Purity By Area Normalization (40° C., citrate pH 5, 50 mM, 0.5 mo): 55% | Roxithromycin % Purity By Area Normalization (40° C., citrate pH 5, 50 mM, 0.9 mo): 44% | Roxithromycin % Purity By Area Normalization (40° C., citrate pH 5, 50 mM, 1.5 mo): 28% | Roxithromycin % Purity By Area Normalization (40° C., citrate pH 5, 50 mM, 2.6 mo): 13% | Roxithromycin % Purity By Area Normalization (40° C., citrate pH 5, 50 mM, 5.3 mo): 3% | Roxithromycin % Purity By Area Normalization (40° C., citrate pH 5, 100 mM, 0 mo): 90% | Roxithromycin % Purity By Area Normalization (40° C., citrate pH 5, 100 mM, 0.3 mo): 60% | Roxithromycin % Purity By Area Normalization (40° C., citrate pH 5, 100 mM, 0.5 mo): 46% | Roxithromycin % Purity By Area Normalization (40° C., citrate pH 5, 100 mM, 0.9 mo): 31% | Roxithromycin % Purity By Area Normalization (40° C., citrate pH 5, 100 mM, 1.5 mo): 14% | Roxithromycin % Purity By Area Normalization (40° C., citrate pH 5, 100 mM, 2.6 mo): 4% | Roxithromycin % Purity By Area Normalization (40° C., citrate pH 6, 20 mM, 0 mo): 98% | Roxithromycin % Purity By Area Normalization (40° C., citrate pH 6, 20 mM, 0.3 mo): 95% | Roxithromycin % Purity By Area Normalization (40° C., citrate pH 6, 20 mM, 0.5 mo): 92% | Roxithromycin % Purity By Area Normalization (40° C., citrate pH 6, 20 mM, 0.9 mo): 89% | Roxithromycin % Purity By Area Normalization (40° C., citrate pH 6, 20 mM, 1.5 mo): 84% | Roxithromycin % Purity By Area Normalization (40° C., citrate pH 6, 20 mM, 2.6 mo): 79% | Roxithromycin % Purity By Area Normalization (40° C., citrate pH 6, 20 mM, 5.3 mo): 76% | Roxithromycin % Purity By Area Normalization (40° C., citrate pH 6, 50 mM, 0 mo): 98% | Roxithromycin % Purity By Area Normalization (40° C., citrate pH 6, 50 mM, 0.3 mo): 89% | Roxithromycin % Purity By Area Normalization (40° C., citrate pH 6, 50 mM, 0.5 mo): 82% | Roxithromycin % Purity By Area Normalization (40° C., citrate pH 6, 50 mM, 0.9 mo): 77% | Roxithromycin % Purity By Area Normalization (40° C., citrate pH 6, 50 mM, 1.5 mo): 71% | Roxithromycin % Purity By Area Normalization (40° C., citrate pH 6, 50 mM, 2.6 mo): 65% | Roxithromycin % Purity By Area Normalization (40° C., citrate pH 6, 50 mM, 5.3 mo): 61% | Roxithromycin % Purity By Area Normalization (40° C., citrate pH 6, 100 mM, 0 mo): 98% | Roxithromycin % Purity By Area Normalization (40° C., citrate pH 6, 100 mM, 0.3 mo): 85% | Roxithromycin % Purity By Area Normalization (40° C., citrate pH 6, 100 mM, 0.5 mo): 77% | Roxithromycin % Purity By Area Normalization (40° C., citrate pH 6, 100 mM, 0.9 mo): 72% | Roxithromycin % Purity By Area Normalization (40° C., citrate pH 6, 100 mM, 1.5 mo): 66% | Roxithromycin % Purity By Area Normalization (40° C., citrate pH 6, 100 mM, 2.6 mo): 58% | Roxithromycin % Purity By Area Normalization (40° C., citrate pH 6, 100 mM, 5.3 mo): 48%
